Data as given in patent US8980912B2, “Cyclic amine compound and acaricide” (Nippon Soda Co., Ltd., priority 2010, dated 2015).

Tested on: Tetranychus urticae
Assay: Efficacy test against Tetranychus urticae (adult mites on kidney bean plant, spray)
Format: in vivo
Conditions: emulsion diluted to 31 ppm, sprayed; organic phosphorous-resistant adult females; 3 days after spraying
Experimental: Efficacy Test Against Tetranychus urticae
Seventeen organic phosphorous-resistant adult female Tetranychus urticae mites were inoculated onto the first leaves of a kidney bean plant planted in a No. 3 pot 7 to 10 days after germination. Next, an emulsion was prepared having the formula indicated in the aforementioned Preparation example 2. […] The kidney bean plant was then placed in a temperature-controlled room at a temperature of 25° C. and humidity of 65%. The adult insect mortality rates were investigated 3 days after spraying. The test was repeated twice.

COC(C)COc1cc(C(F)(F)F)ccc1OC1CC2CCCC(C1)N2Oc1ccc(C(F)(F)F)cn1 (stereo not shown) [H-81]
insect mortality rate: ≥ 80%
